Data reported in US12357608B2, “Methods and compositions utilizing RRx-001 combination therapy for radioprotection” (priority 2018, dated 2025).

Assays:
CD2F1 male mice = assay: Complete blood count with differential and reticulocytes after sublethal TBI or sham irradiation; format: in vivo; conditions: 7 Gy TBI
Protocol: To determine the pathophysiological effects of RRx-001 on hematopoietic protection in mice, CD2F1 male mice were treated with 10 mg/kg RRx-001 or the vehicle control 24 hours prior to a sublethal dose of TBI (7 Gy at 0.6 Gy/min using High-level Cobalt-60) or sham irradiation (day 0) according to the table below.
CD2F1 male mice (n=3/group) were divided into 4 experimental groups: 1) irradiation+vehicle, 2) irradiation+RRx-001, 3) sham-irradiation+vehicle and 4) sham-irradiation+RRx-001. Either 10 mg/kg RRx-001 or the vehicle control were IP injected 24 hours prior to either irradiation or sham-irradiation (day 0). On days 2, 7, 14, 21, and 28 post-irradiation (day 0) mice were humanely euthanized. Blood, bone marrow, and sternebrae were then collected. This experiment was performed in duplicate for a total of n=6 mice/group/time point.
Post-irradiation whole blood was obtained by terminal cardiocentesis. Blood samples were immediately transferred into EDTA tubes (Sarstedt Inc., Newton, NC) and gently rotated until the time of analysis. The tubes were analyzed for a complete blood count with differential and reticulocytes using the ADVIA 2120 (Siemens Medical Solutions Diagnostics, Dublin, Ireland), and Microsoft software version 5.9 (Microsoft Corp., Redmond, WA) to generate the data.
Blood parameters were compared between treatment groups using an analysis of variance (ANOVA). The Wilcoxon test was also used for sensitivity and to potentially address data departures from normality. A longitudinal mixed model repeated measures was also implemented to provide a more complete data analysis of the sham-irradiated treatment groups' difference in overall time profile mean based on the blood parameters. Bone marrow data (megakaryocytes and grade) statistical analysis was carried out using a parametric test consisting of a general linear model analysis of variance (ANOVA with factors consisting of treatment group and pathologist) and the Kruskal-Wallis nonparametric test. The statistical data analysis was carried out using R software (Version 3.4.3, 2016) and the graphs made using GraphPad Prism version 7.03 (GraphPad Software, La Jolla, CA).

U937 cells = assay: Western blotting of ARE proteins in U937 monocytes and macrophages; format: cell-based, human; conditions: 3 mM RRx-001 16 hours
Protocol: Expression of ARE proteins was assayed in hMSC, macrophages, and monocytes following in vitro irradiation of the cells, which were pretreated with RRx-001 or vehicle. Protein expression was assayed by Western blotting and protein quantification.
hMSC were treated for 16 hours with […] RRx-001 or the vehicle control (0.05% DMSO), irradiated at 10 Gy or sham-irradiated and the protein collected 8 or 24 hours post-sham or irradiation. Human monocytic leukemic THP-1 and U937 cells were differentiated into macrophages with 50 nM Phorbol 12-myristate 13-acetate (PMA) for 24 hours before treatment. Differentiated and non-differentiated cells were treated with […] RRx-001 or 0.05% DMSO (vehicle control) for 16 hours prior to radiation. The cells were irradiated at 5 Gy or sham-irradiated and collected 4-8 hours later for both analysis. For each experiment, duplicates of each sample were run.

[1] = system: male Syrian Golden Hamsters; assay: Oral mucositis induced by acute radiation in hamsters; format: in vivo
Protocol: Fifty-six (56) male Syrian Golden Hamsters were used in the study. Mucositis was induced by administering an acute radiation dose of 40 Gy directed to the left buccal cheek pouch on Day 0 at a rate of 2-2.5 Gy/min. Mucositis was evaluated clinically starting on Day 6 and continuing on alternate days until Day 28. Hamsters reaching a mucositis severity score of 4 or higher received buprenorphine (0.5 mg/kg) SC twice a day for 48 hours or until score dropped below 4.
Dosing was scheduled as follows: for animals in Groups 1-4, animals were dosed with RRx-001 (1, 3, or 10 mg/kg) or vehicle (1:2 DMA:PEG400 vol:vol ratio) once a day (QD) on Days −4, −1, 1, 4, 7, 11, 14, 18, 21, and 25 via intraperitoneal (IP) administration; animals in Groups 5-7 were dosed QD with RRx-001 (1, 3, or 10 mg/kg) on Days −4, −1, 1, 8, 15, and 22.
The significance of differences observed between the control and treatment group was evaluated by comparing the days with mucositis scores≥3 and <3 between groups using chi-square analysis. […] The percentage of animal days with a score of ≥3 in the Vehicle Group was 57.29%. […] There were numerous days where animals dosed with RRx-001 had percent ulceration days that were lower (which can be interpreted as ameliorative of disease severity) in comparison to vehicle-dosed animals.
An analysis of the severity of mucositis was performed using the Mann-Whitney rank sum analysis to compare the visual mucositis scores for the treatment group to the Vehicle control group on each day of evaluation. In this analysis, 2 days of significant reduction in the mucositis score are generally required before it is regarded as meaningful.
This evaluation was intended to clarify which days of treatment had its maximal impact on the course of ulcerative mucositis. There were numerous days where animals dosed with RRx-001 had percent ulceration days that were lower (which can be interpreted as ameliorative of disease severity) in comparison to vehicle-dosed animals.

[2] = days 2 and 21 post-irradiation, vs vehicle control

With `O=C(CBr)N1CC([N+](=O)[O-])([N+](=O)[O-])C1` [RRx-001, 2-bromo-1-(3,3-dinitroazetidin-1-yl)ethan-1-one] the “% RETIC” value (CD2F1 male mice; day 14, vs control mice) was “significantly increased”, the ALC counts (CD2F1 male mice; day 14, vs controls) was “significantly increased” and the WBC counts (CD2F1 male mice; day 14, vs controls) was “significantly increased”. For the same compound, the “% HCT” value (CD2F1 male mice; day 14, vs irradiated control) was “significantly increased”, the “% RETIC” value (CD2F1 male mice; day 28, vs vehicle controls) was “significantly increased” and the “absolute lymphocyte count (ALC)” value (CD2F1 male mice; [2]) was “No significant difference”. For the same compound, the “absolute neutrophil count (ANC)” value (CD2F1 male mice; [2]) was “No significant difference”, the “percent hematocrit (% HCT)” value (CD2F1 male mice; [2]) was “No significant difference” and the “percent reticulocytes (% RETIC)” value (CD2F1 male mice; [2]) was “No significant difference”. The “platelets (PLT)” value (CD2F1 male mice; [2]) was “No significant difference”, the “white blood cells (WBC)” value (CD2F1 male mice; [2]) was “No significant difference” and the ANC (CD2F1 male mice; days 7 and 14, vs control) was “significantly increased”. For the same compound, the PLT (CD2F1 male mice; days 7 and 14, vs control) was “significantly increased”, the “red blood cells and hemoglobin” value (CD2F1 male mice; irradiated RRx-001 vs irradiated vehicle group) was “not significantly different” and the “white blood cells and red blood cell production” value (CD2F1 male mice; irradiated mice vs irradiated vehicle control) was “significant increase”. For the same compound, the NQO-1 expression (U937 cells; U937 macrophages) was “no change”, the SOD-1 expression (U937 cells; U937 macrophages) was “no change” and the HO-1 production (U937 cells; U937 macrophages, sham and irradiated groups) was “increased HO-1 production”. For the same compound, the HO-1 expression (U937 cells; U937 monocyte fraction) was “significant increase in HO-1”, the “daily mucositis scores compared to the Vehicle control group” value ([1]; 1 mg/kg IP) was “multiple days of significant improvement in mucositis scores” and the “daily mucositis scores compared to the Vehicle control group” value ([1]; 10 mg/kg IP) was “multiple days of significant improvement in mucositis scores”. For the same compound, the “mean daily mucositis scores” value ([1]; 10 mg/kg IP, Group 2, dosed Days −4, −1, 1, 40 Gy) was “modest but significant enhancement of disease healing”, the “body weight by study termination” value ([1]; 10 mg/kg IP, Groups 2 and 5, after cessation of dosing) was “rebounded back to be in line with other groups” and the “tolerability of the highest dose” value ([1]; 10 mg/kg IP, Groups 2 and 5, dosing discontinued after Day 1) was “adverse side effects”. The body weight ([1]; 10 mg/kg IP, Groups 2 and 5, during study) was “lower weights than all other groups”, the percent ulceration ([1]; 10 mg/kg, Groups 2 and 5, only dosed on Days −4, −1, and 1) was “best response in decreasing percent ulceration” and the “percent days of ulceration, twice weekly dosing vs one time per week” value ([1]; 3 and 1 mg/kg, 1 mg/kg, Group 4 vs Group 7) was “more beneficial effects on percent days of ulceration”. For the same compound, the “percentage of days with a mucositis score of ≥3 in comparison to the Vehicle Group” value ([1]; Group 2, 10 mg/kg on Days −4, −1, 1, p<0.01) was “statistically lower”, the body weight ([1]; all groups except Groups 2 and 5 (1 and 3 mg/kg IP)) was “steadily gained weight” and the “mean daily mucositis scores” value ([1]; all other treatment groups (Groups 3-7)) was “tracked fairly close to each other, and with Vehicle dosed controls”. For the same compound, the “percent ulceration days in comparison to vehicle-dosed animals” value ([1]; numerous days) was “lower”.
